Literature values, collected in US5763596A, “C-4' modified adenosine kinase inhibitors” (Metabasis Therapeutics, Inc., priority 1996, dated 1998).
Like-named read-outs stand apart in the source and are kept apart here.

Assays:
[1] = system: rat cardiomyocytes; settings: adenosine deaminase inhibition alone; cited from earlier work
[2] = system: isolated guinea pig hearts; settings: in the absence of ADA inhibition; cited from earlier work
[3] = system: rat brain slices; settings: cited from earlier work
[4] = system: mice; settings: cited from earlier work
[5] = system: guinea pig brain slices; settings: cited from earlier work
[6] = in vivo; cited from earlier work
[7] = system: isolated rat hearts; settings: cited from earlier work

SMILES	adenosine uptake [3]	general flaccidity [4]	adenosine uptake [5]	also measured
OC[C@H]1O[C@@H](n2cnc3c2N=CNC[C@H]3O)C[C@@H]1O [2'-deoxycoformycin]	–	–	–	effect on adenosine release from the cells [1]: no effect on adenosine release
NC[C@H]1O[C@@H](n2cnc3c(N)ncnc32)[C@H](O)[C@@H]1O [5'-amino-5'-deoxyadenosine]	–	–	–	adenosine release effect [2]: not apparent
C[C@H]1O[C@@H](n2cc(I)c3c(N)ncnc32)[C@H](O)[C@@H]1O [5'-deoxy-5-iodotubercidin]	adenosine uptake was reportedly inhibited	pronounced general flaccidity	adenosine uptake was reportedly inhibited	–
Nc1ncnc2c1c(I)cn2[C@@H]1O[C@H](CO)[C@@H](O)[C@H]1O [5-iodotubercidin]	adenosine uptake was reportedly inhibited	pronounced general flaccidity	adenosine uptake was reportedly inhibited	protection against ischemic cerebral injury [6]: apparently does not protect against ischemic cerebral injury; increase in perfusate adenosine concentration ([7]; hypoxic, anoxic or ischemic conditions): no increase in perfusate adenosine concentration; increase in perfusate adenosine concentration ([7]; normoxic conditions): no increase in perfusate adenosine concentration
